“Also recorded” adds a separate entry of the source. No end group written: not given here.
System: combined collagen-adjuvant induced arthritis (calf type II collagen in combination with Freund's complete adjuvant)
Assay: Protective effect of peptide A on combined collagen-adjuvant induced arthritis in rats
Format: in vivo, SD rats
Details: for ankle joint swelling value: X±SD; for ankle joint swelling value / Lesion scoring ( X ± SD), joint lesion severity: n=10; for inhibition rate of ankle joint swelling: vs model group; for Lesion scoring ( X ± SD), joint lesion severity / state of joint synovial tissue (HE sections): 32nd day; for Lesion scoring ( X ± SD), joint lesion severity: left rear ankle joint histopathology, lower score = milder
From the text: SPF-level SD rats, each weighting 180 g˜220 g, with male and female each in half, provided by Experimental Animal Center of Chinese Academy of Military Medical.
Peptide with the following sequence is used: GQTYTSG (hereinafter referred to as peptide A), which is synthesized by solid phase peptide synthesis method using 413A automatic peptide synthesizer (available from Perkin Elmer Corporation), the detailed synthetic steps is described in Example 1 of PCT/CN2006/001176. The peptide was to be dissolved in physiological saline when used.
SD rats, with male and female each in half, were randomly divided into five groups with 10 rats in each group, respectively are model group (employing physiological saline, calf type II collagen and Freund's complete adjuvant); control group (employing the same volume of physiological saline as the model group); peptide A high, medium and low dose groups (employing calf type II collagen, Freund's complete adjuvant and peptide A, wherein each group is given different doses of peptide A, respectively are 174 μg/kg·d, 87 μg/kg·d and 43.5 μg/kg·d, peptide A is dissolved in physiological saline to form peptide A solution with desired concentration). Peptide A solution in each dose was administered by subcutaneous injection, 0.1 ml of peptide A solution per 100 g body weight of rats. The control group employed the same amount of physiological saline as that of the peptide A solution (0.1 ml of physiological saline per 100 g body weight of rats).
10 mg of calf type II collagen was dissolved into 5 ml 0.1 mol/L of acetic acid solution, and then the resulting solution was placed in a refrigerator at 4° C. overnight, the next day, the solution was mixed with Freund's complete adjuvant in a volume ratio of 1:1, the resulting mixture is sucked and discharged repeatedly by a syringe, until the mixture was emulsified into an emulsion completely. Each group rats were administered according to the following manner. These rats were normally fed every day during the administration.
On the 1st day, except the control group, for rats of other groups (the model group and the peptide A high, medium and low dose groups), 0.5 ml of the emulsion (prepared by calf type II collagen and Freund's complete adjuvant as above) was subcutaneously injected into the base of the tail of every rat, and the injection site is pressed slightly for 30 s so that the emulsion was completely absorbed. On the 8th day, emulsion injection is conducted again in the same way, 0.5 ml for every rat.
From the 2nd day (including this day), the rats of peptide A high, medium and low dose groups each were administered with corresponding dose of peptide A. Then, they were subcutaneously injected with corresponding dose of peptide A for one time every other day, a total of 15 times; at the same time, the rats of the control group and the model group were subcutaneously injected the same amount of physiological saline as that of peptide A for the high, medium and low dose groups every other day, a total of 15 times.
Measurement for the experimental results was conducted as follows. Firstly, before administration to rats of each group, left rear ankle circumference of each rat was measured by a flexible rule as a base value, and then circumference of left rear ankle with inflammation of each rat was measured at the 4th, 8th, 12th, 16th, 20th, 24th, 28th, and 32nd day, respectively. Swelling value obtained by circumference after inflammation minus circumference before inflammation was used to observe changes of primary and secondary inflammation of combined collagen-adjuvant induced rats.
Secondly, at the 32nd day, rats of each group were killed, and their left rear foot ankle joints ware quickly taken out, fixed in 10% formalin and then embedded in paraffin after decalcification, sectioned and stained with HE. […]

[1] = high dose 174 μg/kg·d s.c., the 4th day
[2] = high dose 174 μg/kg·d s.c., the 8th day
[3] = high dose 174 μg/kg·d s.c., the 12th day
[4] = high dose 174 μg/kg·d s.c., the 16th day
[5] = high dose 174 μg/kg·d s.c., the 20th day
[6] = high dose 174 μg/kg·d s.c., the 24th day
[7] = high dose 174 μg/kg·d s.c., the 28th day
[8] = high dose 174 μg/kg·d s.c., the 32nd day
[9] = low dose 43.5 μg/kg·d s.c., the 4th day
[10] = low dose 43.5 μg/kg·d s.c., the 8th day
[11] = low dose 43.5 μg/kg·d s.c., the 12th day
[12] = low dose 43.5 μg/kg·d s.c., the 16th day
[13] = low dose 43.5 μg/kg·d s.c., the 20th day
[14] = low dose 43.5 μg/kg·d s.c., the 24th day
[15] = low dose 43.5 μg/kg·d s.c., the 28th day
[16] = low dose 43.5 μg/kg·d s.c., the 32nd day
[17] = medium dose 87 μg/kg·d s.c., the 4th day
[18] = medium dose 87 μg/kg·d s.c., the 8th day
[19] = medium dose 87 μg/kg·d s.c., the 12th day
[20] = medium dose 87 μg/kg·d s.c., the 16th day
[21] = medium dose 87 μg/kg·d s.c., the 20th day
[22] = medium dose 87 μg/kg·d s.c., the 24th day
[23] = medium dose 87 μg/kg·d s.c., the 28th day
[24] = medium dose 87 μg/kg·d s.c., the 32nd day

GQTYTSG [Peptide A]
arthritis lesion (histopathology) after administration (all dose groups, effect in descending order high, medium, low): reduced in different degrees
ankle joint swelling value [1]: 7.3 ± 1.8 mm
inhibition rate of ankle joint swelling [1]: (20.6%)
ankle joint swelling value [2]: 8.2 ± 1.5 mm
inhibition rate of ankle joint swelling [2]: (34.4%)
ankle joint swelling value [3]: 9.5 ± 2.1 mm
inhibition rate of ankle joint swelling [3]: (30.1%)
ankle joint swelling value [4]: 9.8 ± 1.7 mm
inhibition rate of ankle joint swelling [4]: (35.5%)
ankle joint swelling value [5]: 10.2 ± 1.9 mm
inhibition rate of ankle joint swelling [5]: (41.4%)
ankle joint swelling value [6]: 10.5 ± 1.9 mm
inhibition rate of ankle joint swelling [6]: (44.1%)
ankle joint swelling value [7]: 11.4 ± 1.6 mm
inhibition rate of ankle joint swelling [7]: (38.7%)
ankle joint swelling value [8]: 12.0 ± 1.6 mm
inhibition rate of ankle joint swelling [8]: (30.6%)
Lesion scoring ( X ± SD), joint lesion severity (high dose group (174 μg/kg·d s.c.)): 3.73 ± 1.57
inhibition rate to the joint swelling (high dose group (174 μg/kg·d)): ~45%
state of joint synovial tissue (HE sections) (high dose group, FIGS. 5a and 5b): mild congestion of local synovial tissue of the rats, having no significant surface proliferation
joint swelling compared with rats of the model group (high, medium and low dose groups, observation): significantly reduced joint swelling
skin ulcer symptom (high, medium and low dose groups, part of model rats had skin ulcers on the 24th day): did not have skin ulcer symptom
ankle joint swelling value [9]: 8.8 ± 1.6 mm
inhibition rate of ankle joint swelling [9]: (4.3%)
ankle joint swelling value [10]: 10.2 ± 1.7 mm
inhibition rate of ankle joint swelling [10]: (18.4%)
ankle joint swelling value [11]: 11.2 ± 1.8 mm
inhibition rate of ankle joint swelling [11]: (17.6%)
ankle joint swelling value [12]: 12.3 ± 1.8 mm
inhibition rate of ankle joint swelling [12]: (19.1%)
ankle joint swelling value [13]: 13.4 ± 1.7 mm
inhibition rate of ankle joint swelling [13]: (23.0%)
ankle joint swelling value [14]: 14.6 ± 1.8 mm
inhibition rate of ankle joint swelling [14]: (22.3%)
ankle joint swelling value [15]: 14.8 ± 2.2 mm
inhibition rate of ankle joint swelling [15]: (20.4%)
ankle joint swelling value [16]: 14.5 ± 1.8 mm
inhibition rate of ankle joint swelling [16]: (16.2%)
Lesion scoring ( X ± SD), joint lesion severity (low dose group (43.5 μg/kg·d s.c.)): 4.36 ± 1.15
state of joint synovial tissue (HE sections) (low dose group, FIGS. 3a and 3b): mild congestion and significant proliferation and surface projection of the synovial tissue, as well as mild degeneration of covering synovial cells
ankle joint swelling value [17]: 8.2 ± 1.5 mm
inhibition rate of ankle joint swelling [17]: (10.9%)
ankle joint swelling value [18]: 9.3 ± 2.2 mm
inhibition rate of ankle joint swelling [18]: (25.6%)
ankle joint swelling value [19]: 9.9 ± 1.8 mm
inhibition rate of ankle joint swelling [19]: (27.2%)
ankle joint swelling value [20]: 11.4 ± 1.6 mm
inhibition rate of ankle joint swelling [20]: (25.0%)
ankle joint swelling value [21]: 12.2 ± 1.7 mm
inhibition rate of ankle joint swelling [21]: (29.9%)
ankle joint swelling value [22]: 12.6 ± 2.1 mm
inhibition rate of ankle joint swelling [22]: (33.0%)
ankle joint swelling value [23]: 13.7 ± 1.8 mm
inhibition rate of ankle joint swelling [23]: (26.3%)
ankle joint swelling value [24]: 13.9 ± 1.7 mm
inhibition rate of ankle joint swelling [24]: (19.6%)
Lesion scoring ( X ± SD), joint lesion severity (medium dose group (87 μg/kg·d s.c.)): 4.12 ± 1.28
state of joint synovial tissue (HE sections) (medium dose group, FIGS. 4a and 4b): mild congestion of local synovial tissue and infiltration of few inflammatory cells; also recorded: mild congestion, uneven surface and mild proliferation of the synovial tissue

From patent publication US20140235545A1, “The use of HCV immunogenic peptide or a derivative thereof in the prevention or treatment of arthritis” (priority 2011, published 2014)
